Holding throughout (assay): G' assay (10 uM PL peptide), results of TABLE 7 and TABLE 12
Common to all, as to type: binding

In experiment [1] the target is T1, PDZ protein (GST-PDZ fusion) (Homo sapiens, UniProt O75970).
T1 construct: made in house; host or cells: E. coli (DH5alpha, BL21 or JM109)
The essentials: (§1)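 Binding classes derive from A450 nm of bound biotin-tagged PL peptide. A score of 5 needs A450 above 4 in more than two repeats.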

Experiment [2] deals with T2, PDZ protein (GST-PDZ fusion) (Homo sapiens, UniProt Q12923).
T2 construct: made in house; host or cells: E. coli (DH5alpha, BL21 or JM109)
The essentials:
as §1

Experiment [3] addresses T3, PDZ protein (GST-PDZ fusion) (Homo sapiens, UniProt Q5TCQ9).
T3 construct: made in house; host or cells: E. coli (DH5alpha, BL21 or JM109)
T3 sequence (Q5TCQ9 1-1481): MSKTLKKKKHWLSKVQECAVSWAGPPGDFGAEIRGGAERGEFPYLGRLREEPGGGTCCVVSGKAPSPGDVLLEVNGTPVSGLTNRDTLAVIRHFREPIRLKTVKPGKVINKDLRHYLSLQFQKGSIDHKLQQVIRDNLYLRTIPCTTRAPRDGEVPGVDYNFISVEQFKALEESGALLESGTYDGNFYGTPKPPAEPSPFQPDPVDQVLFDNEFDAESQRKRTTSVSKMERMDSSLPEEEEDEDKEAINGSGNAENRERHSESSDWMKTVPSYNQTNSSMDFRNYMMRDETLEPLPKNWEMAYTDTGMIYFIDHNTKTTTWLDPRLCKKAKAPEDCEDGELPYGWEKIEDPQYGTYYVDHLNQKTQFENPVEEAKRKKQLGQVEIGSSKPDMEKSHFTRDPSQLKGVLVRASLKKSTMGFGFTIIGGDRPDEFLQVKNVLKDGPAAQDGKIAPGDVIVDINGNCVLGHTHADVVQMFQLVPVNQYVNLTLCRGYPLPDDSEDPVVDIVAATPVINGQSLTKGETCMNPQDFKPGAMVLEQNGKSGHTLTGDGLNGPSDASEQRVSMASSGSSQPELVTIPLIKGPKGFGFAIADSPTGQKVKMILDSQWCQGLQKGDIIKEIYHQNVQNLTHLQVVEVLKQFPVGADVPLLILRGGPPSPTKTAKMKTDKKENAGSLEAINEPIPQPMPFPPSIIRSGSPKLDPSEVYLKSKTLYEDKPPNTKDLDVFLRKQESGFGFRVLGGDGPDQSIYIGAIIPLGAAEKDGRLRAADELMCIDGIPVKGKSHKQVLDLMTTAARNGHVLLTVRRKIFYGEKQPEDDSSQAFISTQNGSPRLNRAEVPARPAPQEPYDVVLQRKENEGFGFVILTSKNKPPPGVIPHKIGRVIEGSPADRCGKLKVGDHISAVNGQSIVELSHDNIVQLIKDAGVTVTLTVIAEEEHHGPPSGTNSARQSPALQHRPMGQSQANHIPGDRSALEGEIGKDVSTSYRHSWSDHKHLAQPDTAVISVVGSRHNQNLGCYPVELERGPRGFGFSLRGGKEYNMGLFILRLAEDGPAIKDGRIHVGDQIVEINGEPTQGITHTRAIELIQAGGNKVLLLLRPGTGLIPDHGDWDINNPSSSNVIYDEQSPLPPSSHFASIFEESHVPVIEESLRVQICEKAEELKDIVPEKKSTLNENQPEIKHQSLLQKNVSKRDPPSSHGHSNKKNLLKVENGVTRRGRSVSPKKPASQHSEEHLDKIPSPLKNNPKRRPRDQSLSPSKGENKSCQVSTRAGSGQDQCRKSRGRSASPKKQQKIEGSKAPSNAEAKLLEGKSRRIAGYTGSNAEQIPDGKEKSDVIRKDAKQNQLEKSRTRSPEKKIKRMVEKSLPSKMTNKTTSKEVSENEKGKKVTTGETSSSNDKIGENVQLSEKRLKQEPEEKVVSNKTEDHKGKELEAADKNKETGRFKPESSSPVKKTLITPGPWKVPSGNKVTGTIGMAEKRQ
The essentials:
as §1

Experiment [4] concerns PDZ protein (GST-PDZ fusion). The essentials:
as §1

Ends that are not written are not given here. * marks the point of attachment. Biotin = O=C1N[C@H]2[C@H](CS[C@H]2CCCCC(=O)*)N1

T1 sequence (O75970 whole entry, the tested form may be a part): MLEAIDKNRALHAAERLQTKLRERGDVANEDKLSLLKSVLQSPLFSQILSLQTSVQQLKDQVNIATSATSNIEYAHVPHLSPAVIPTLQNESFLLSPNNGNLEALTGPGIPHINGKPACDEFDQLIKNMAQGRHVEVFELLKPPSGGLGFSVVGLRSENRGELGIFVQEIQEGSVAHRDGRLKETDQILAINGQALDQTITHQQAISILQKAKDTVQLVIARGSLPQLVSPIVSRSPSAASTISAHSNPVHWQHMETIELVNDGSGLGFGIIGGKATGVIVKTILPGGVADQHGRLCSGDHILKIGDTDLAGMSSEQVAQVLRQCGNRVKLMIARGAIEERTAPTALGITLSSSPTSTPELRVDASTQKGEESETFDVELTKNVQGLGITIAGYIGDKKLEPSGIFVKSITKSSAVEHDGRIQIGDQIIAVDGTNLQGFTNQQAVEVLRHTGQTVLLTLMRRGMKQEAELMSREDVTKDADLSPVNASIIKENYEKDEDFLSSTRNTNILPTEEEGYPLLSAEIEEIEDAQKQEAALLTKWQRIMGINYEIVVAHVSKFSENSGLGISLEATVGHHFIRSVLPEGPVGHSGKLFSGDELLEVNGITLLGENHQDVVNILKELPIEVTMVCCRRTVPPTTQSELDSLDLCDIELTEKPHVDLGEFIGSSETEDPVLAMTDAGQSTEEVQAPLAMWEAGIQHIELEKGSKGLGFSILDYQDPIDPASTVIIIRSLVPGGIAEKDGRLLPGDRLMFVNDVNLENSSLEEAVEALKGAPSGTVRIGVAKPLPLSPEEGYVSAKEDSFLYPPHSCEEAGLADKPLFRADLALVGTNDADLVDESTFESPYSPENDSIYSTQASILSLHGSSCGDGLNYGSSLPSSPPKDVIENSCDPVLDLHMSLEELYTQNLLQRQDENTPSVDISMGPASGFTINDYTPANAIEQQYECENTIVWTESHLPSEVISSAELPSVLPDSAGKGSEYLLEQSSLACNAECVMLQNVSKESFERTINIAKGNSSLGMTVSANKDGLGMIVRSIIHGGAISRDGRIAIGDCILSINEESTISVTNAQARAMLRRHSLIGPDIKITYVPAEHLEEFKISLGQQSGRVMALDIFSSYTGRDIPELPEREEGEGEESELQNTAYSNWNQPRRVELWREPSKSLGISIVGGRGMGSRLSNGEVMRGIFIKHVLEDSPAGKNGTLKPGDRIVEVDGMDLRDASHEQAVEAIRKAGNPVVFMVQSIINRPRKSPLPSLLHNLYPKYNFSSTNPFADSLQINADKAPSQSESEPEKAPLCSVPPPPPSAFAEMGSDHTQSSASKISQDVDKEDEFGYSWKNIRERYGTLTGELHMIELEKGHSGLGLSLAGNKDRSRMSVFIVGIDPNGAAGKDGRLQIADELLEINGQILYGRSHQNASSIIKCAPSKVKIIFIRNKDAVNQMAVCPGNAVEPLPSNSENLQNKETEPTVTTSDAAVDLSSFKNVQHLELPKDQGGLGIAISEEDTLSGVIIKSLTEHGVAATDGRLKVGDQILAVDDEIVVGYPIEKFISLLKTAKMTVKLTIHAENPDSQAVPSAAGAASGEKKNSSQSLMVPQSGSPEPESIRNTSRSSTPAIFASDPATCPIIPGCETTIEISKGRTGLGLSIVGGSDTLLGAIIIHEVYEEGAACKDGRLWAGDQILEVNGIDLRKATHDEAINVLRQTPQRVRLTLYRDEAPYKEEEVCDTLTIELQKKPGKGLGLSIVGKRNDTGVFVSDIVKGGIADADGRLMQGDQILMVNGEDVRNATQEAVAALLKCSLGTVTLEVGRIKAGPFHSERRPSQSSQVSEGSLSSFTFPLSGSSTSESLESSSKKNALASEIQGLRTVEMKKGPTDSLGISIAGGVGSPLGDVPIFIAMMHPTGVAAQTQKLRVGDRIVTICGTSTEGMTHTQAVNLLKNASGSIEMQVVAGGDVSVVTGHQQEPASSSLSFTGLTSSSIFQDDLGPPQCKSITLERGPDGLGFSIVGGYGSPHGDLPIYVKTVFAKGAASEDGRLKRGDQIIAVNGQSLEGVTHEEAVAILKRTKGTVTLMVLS
T2 sequence (Q12923 whole entry, the tested form may be a part): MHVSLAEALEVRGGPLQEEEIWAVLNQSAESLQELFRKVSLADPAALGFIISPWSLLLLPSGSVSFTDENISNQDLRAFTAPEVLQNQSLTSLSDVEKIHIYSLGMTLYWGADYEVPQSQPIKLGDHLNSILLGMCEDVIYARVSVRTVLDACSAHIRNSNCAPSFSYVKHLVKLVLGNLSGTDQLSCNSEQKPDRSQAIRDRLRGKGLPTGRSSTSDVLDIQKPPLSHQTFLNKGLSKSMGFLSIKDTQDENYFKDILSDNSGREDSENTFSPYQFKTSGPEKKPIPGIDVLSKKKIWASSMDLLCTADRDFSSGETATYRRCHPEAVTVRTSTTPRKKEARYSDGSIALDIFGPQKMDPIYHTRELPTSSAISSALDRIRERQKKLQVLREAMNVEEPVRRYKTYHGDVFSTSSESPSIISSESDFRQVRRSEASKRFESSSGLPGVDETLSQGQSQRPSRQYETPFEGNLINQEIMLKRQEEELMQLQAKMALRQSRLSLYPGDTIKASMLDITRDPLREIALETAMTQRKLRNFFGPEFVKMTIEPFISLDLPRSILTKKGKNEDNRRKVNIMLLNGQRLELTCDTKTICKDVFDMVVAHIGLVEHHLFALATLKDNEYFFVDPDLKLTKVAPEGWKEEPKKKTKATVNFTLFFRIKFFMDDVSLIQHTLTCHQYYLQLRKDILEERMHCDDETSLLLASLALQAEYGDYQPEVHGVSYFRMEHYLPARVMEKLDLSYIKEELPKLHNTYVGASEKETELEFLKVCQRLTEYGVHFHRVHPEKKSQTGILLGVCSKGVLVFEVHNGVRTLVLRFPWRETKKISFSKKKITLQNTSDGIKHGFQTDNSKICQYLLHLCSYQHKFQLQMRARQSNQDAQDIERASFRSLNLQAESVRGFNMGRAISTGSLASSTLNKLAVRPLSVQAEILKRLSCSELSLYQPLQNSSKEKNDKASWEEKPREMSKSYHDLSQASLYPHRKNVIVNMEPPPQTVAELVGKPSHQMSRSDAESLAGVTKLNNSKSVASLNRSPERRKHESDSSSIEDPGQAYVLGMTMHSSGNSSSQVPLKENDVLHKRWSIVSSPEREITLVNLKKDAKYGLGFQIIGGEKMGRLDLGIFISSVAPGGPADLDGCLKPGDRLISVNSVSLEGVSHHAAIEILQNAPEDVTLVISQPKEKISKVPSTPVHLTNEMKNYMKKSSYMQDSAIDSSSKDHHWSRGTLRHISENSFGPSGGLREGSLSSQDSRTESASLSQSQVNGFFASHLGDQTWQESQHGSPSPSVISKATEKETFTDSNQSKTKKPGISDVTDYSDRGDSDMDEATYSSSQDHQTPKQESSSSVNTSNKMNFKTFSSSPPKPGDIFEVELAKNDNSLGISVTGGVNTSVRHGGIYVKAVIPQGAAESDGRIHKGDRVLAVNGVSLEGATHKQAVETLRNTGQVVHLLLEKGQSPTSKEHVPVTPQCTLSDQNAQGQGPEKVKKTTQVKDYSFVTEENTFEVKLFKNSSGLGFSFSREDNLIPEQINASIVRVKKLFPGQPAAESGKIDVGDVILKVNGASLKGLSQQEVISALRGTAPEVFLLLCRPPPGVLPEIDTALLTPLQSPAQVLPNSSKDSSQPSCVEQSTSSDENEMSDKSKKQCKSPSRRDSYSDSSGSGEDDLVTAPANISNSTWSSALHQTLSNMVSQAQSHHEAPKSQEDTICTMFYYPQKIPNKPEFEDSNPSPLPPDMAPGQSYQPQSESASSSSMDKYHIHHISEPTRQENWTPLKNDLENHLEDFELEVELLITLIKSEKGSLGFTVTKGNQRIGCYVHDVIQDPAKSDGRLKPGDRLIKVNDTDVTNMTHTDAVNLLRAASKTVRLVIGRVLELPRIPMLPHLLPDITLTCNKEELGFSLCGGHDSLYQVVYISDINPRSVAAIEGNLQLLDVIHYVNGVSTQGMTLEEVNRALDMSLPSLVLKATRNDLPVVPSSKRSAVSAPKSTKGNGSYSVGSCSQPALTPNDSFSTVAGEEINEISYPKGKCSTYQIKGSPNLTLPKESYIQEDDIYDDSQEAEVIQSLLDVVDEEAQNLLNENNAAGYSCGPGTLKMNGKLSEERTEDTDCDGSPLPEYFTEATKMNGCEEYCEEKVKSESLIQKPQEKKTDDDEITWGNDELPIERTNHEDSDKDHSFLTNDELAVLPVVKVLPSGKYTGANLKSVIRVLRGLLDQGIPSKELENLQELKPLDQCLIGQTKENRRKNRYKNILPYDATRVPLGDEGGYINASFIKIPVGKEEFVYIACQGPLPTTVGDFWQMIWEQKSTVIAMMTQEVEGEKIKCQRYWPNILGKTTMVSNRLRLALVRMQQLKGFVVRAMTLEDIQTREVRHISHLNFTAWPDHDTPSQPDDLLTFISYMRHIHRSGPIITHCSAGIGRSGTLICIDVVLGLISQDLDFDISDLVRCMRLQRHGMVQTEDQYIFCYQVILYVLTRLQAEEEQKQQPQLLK

Regarding `CC[C@H](C)[C@H](NC(=O)[C@H](CCC(N)=O)NC(=O)CCCC[C@@H]1SC[C@@H]2NC(=O)N[C@@H]21)C(=O)N[C@@H](CO)C(=O)N1CCC[C@H]1C(=O)NCC(=O)NCC(=O)N[C@@H](CC(C)C)C(=O)N[C@@H](CCC(=O)O)C(=O)N1CCC[C@H]1C(=O)N1CCC[C@H]1C(=O)N[C@@H](CO)C(=O)N[C@@H](CCC(=O)O)C(=O)N[C@@H](CCCCN)C(=O)N[C@@H](Cc1c[nH]cn1)C(=O)N[C@@H](Cc1ccccc1)C(=O)N[C@@H](CCCNC(=N)N)C(=O)N[C@@H](CCC(=O)O)C(=O)N[C@H](C(=O)N[C@@H](CCC(=O)O)C(=O)N[C@H](C(=O)O)C(C)C)[C@@H](C)O` [Tax], the Classification in experiment [1] (PDZ MUPP-1, PDZ Domain 13) is on record as 5 (A450 nm of 4 more than 2× repeated); in experiment [2] (PDZ PTPL-1, PDZ Domain 2), 2 (A450 nm 1-2); in experiment [3] (PDZ KIAA1634, PDZ Domain 1), 5 (A450 nm of 4 more than 2× repeated); in experiment [3] (PDZ KIAA1634, PDZ Domain 2), 2 (A450 nm 1-2); in experiment [3] (PDZ KIAA1634, PDZ Domain 4) it was 2 (A450 nm 1-2); in experiment [3] (PDZ KIAA1634, PDZ Domain 5), 1 (A450 nm 0-1). Further, the Classification in experiment [4] (PDZ BAI-1, PDZ Domain 2) is reported as 5 (A450 nm of 4 more than 2× repeated); in experiment [4] (PDZ BAI-1, PDZ Domain 3), 1 (A450 nm 0-1); in experiment [4] (PDZ BAI-1, PDZ Domain 4), 2 (A450 nm 1-2); in experiment [4] (PDZ BAI-1, PDZ Domain 5) it was 5 (A450 nm of 4 more than 2× repeated); in experiment [4] (PDZ BAI-1, PDZ Domain 6) it was 1 (A450 nm 0-1); in experiment [4] (PDZ Connector Enhancer, PDZ Domain 1), 1 (A450 nm 0-1). Moreover, the Classification was 1 (A450 nm 0-1) in experiment [4] (PDZ FLJ 00011, PDZ Domain 1) and 1 (A450 nm 0-1) in experiment [4] (PDZ FLJ 11215, PDZ Domain 1).
As to TQGFPGPATWRRISSLESEV, the Classification is reported as 1 (A450 nm 0-1) in experiment [1] (PDZ MUPP-1, PDZ Domain 5); 1 (A450 nm 0-1) in experiment [1] (PDZ MUPP-1, PDZ Domain 10); 5 (A450 nm of 4 more than 2× repeated) in experiment [1] (PDZ MUPP-1, PDZ Domain 13); 5 (A450 nm of 4 more than 2× repeated) in experiment [2] (PDZ PTPL-1, PDZ Domain 2); 5 (A450 nm of 4 more than 2× repeated) in experiment [3] (PDZ KIAA1634, PDZ Domain 1); 3 (A450 nm 2-3) in experiment [3] (PDZ KIAA1634, PDZ Domain 2). The Classification in experiment [3] (PDZ KIAA1634, PDZ Domain 4) is 1 (A450 nm 0-1); in experiment [3] (PDZ KIAA1634, PDZ Domain 5) it was 1 (A450 nm 0-1); in experiment [4] (PDZ BAI-1, PDZ Domain 2), 4 (A450 nm 3-4); in experiment [4] (PDZ BAI-1, PDZ Domain 3) it was 1 (A450 nm 0-1); in experiment [4] (PDZ BAI-1, PDZ Domain 4) it was 3 (A450 nm 2-3); in experiment [4] (PDZ BAI-1, PDZ Domain 5), 4 (A450 nm 3-4). Besides, the Classification is reported as 2 (A450 nm 1-2) in experiment [4] (PDZ BAI-1, PDZ Domain 6); 2 (A450 nm 1-2) in experiment [4] (PDZ FLJ00011 (also printed FLJ 00011), PDZ Domain 1); 1 (A450 nm 0-1) in experiment [4] (PDZ FLJ 11215, PDZ Domain 1).
Consider `CC[C@H](C)[C@H](NC(=O)[C@H](CCCCN)NC(=O)[C@@H](NC(=O)[C@H](CO)NC(=O)[C@@H]1CCCN1C(=O)[C@H](Cc1ccccc1)NC(=O)[C@@H](NC(=O)[C@@H](NC(=O)[C@H](CCCNC(=N)N)NC(=O)[C@H](CCC(=O)O)NC(=O)[C@H](CC(C)C)NC(=O)[C@H](CC(C)C)NC(=O)[C@H](CC(C)C)NC(=O)[C@@H](NC(=O)CNC(=O)[C@@H](NC(=O)CCCC[C@@H]1SC[C@@H]2NC(=O)N[C@@H]21)C(C)C)[C@@H](C)O)C(C)C)[C@@H](C)CC)C(C)C)C(=O)N[C@@H](C)C(=O)N[C@H](C(=O)N[C@@H](CC(C)C)C(=O)N[C@H](C(=O)O)C(C)C)[C@@H](C)O` [Adenovirus E4 Type9], for which the Classification is on record as 1 (A450 nm 0-1) in experiment [1] (PDZ MUPP-1, PDZ Domain 10, PL peptide 10 uM); 5 (A450 nm of 4 more than 2× repeated) in experiment [1] (PDZ MUPP-1, PDZ Domain 11, Protein Optimal Conc 5); 3 (A450 nm 2-3) in experiment [2] (PDZ PTPL-1, PDZ Domain 2, Protein Optimal Conc 5); 4 (A450 nm 3-4) in experiment [2] (PDZ PTPL-1, PDZ Domain 4, PL peptide 10 uM); 5 (A450 nm of 4 more than 2× repeated) in experiment [3] (PDZ KIAA1634, PDZ Domain 1, PL peptide 10 uM); 5 (A450 nm of 4 more than 2× repeated) in experiment [3] (PDZ KIAA1634, PDZ Domain 2, Protein Optimal Conc 5). In addition, the Classification in experiment [3] (PDZ KIAA1634, PDZ Domain 4, Protein Optimal Conc 5) is given as 4 (A450 nm 3-4); in experiment [4] (PDZ BAI-1, PDZ Domain 2, Protein Optimal Conc 0.3), 5 (A450 nm of 4 more than 2× repeated); in experiment [4] (PDZ BAI-1, PDZ Domain 3, Protein Optimal Conc 0.5) it was 5 (A450 nm of 4 more than 2× repeated); in experiment [4] (PDZ BAI-1, PDZ Domain 4, Protein Optimal Conc 0.3), 5 (A450 nm of 4 more than 2× repeated); in experiment [4] (PDZ BAI-1, PDZ Domain 6, PL peptide 10 uM) it was 1 (A450 nm 0-1); in experiment [4] (PDZ Connector Enhancer, PDZ Domain 1, Protein Optimal Conc 5) it was 3 (A450 nm 2-3). The Classification is 1 (A450 nm 0-1) in experiment [4] (PDZ FLJ 00011, PDZ Domain 1, PL peptide 10 uM) and 3 (A450 nm 2-3) in experiment [4] (PDZ HEMBA 1003117, PDZ Domain 1, Protein Optimal Conc 5).
Regarding “VHDAESSDEDGYDWGPATDL (Biotin-VHDAESSDEDGYDWGPATDL) [zona occludens 3 (ZO-3)]”, the Classification in experiment [1] (PDZ MUPP-1, PDZ Domain 7) is 1 (A450 nm 0-1); in experiment [1] (PDZ MUPP-1, PDZ Domain 9) it was 1 (A450 nm 0-1); in experiment [1] (PDZ MUPP-1, PDZ Domain 13), 2 (A450 nm 1-2); in experiment [2] (PDZ PTPL-1, PDZ Domain 2) it was 2 (A450 nm 1-2); in experiment [3] (PDZ KIAA1634, PDZ Domain 5), 1 (A450 nm 0-1); in experiment [4] (PDZ BAI-1, PDZ Domain 6) it was 2 (A450 nm 1-2). Besides, the Classification in experiment [4] (PDZ Novel PDZ, PDZ Domain 1) is on record as 1 (A450 nm 0-1); in experiment [4] (PDZ SHANK, PDZ Domain 1), 1 (A450 nm 0-1).
